# Measurements: patent US8669271B2 (Boehringer Ingelheim International GmbH, priority 2010, dated 2014)
# pEC50: −log10 of the molar value.
# Biological target: T1, human GPR119 (Homo sapiens, UniProt Q8TDV5)
# T1 construct: expression vector for human GPR119 cDNA (Acc. No. NP_848566); expressed in transfected cells
# T1 sequence (Q8TDV5 1-335): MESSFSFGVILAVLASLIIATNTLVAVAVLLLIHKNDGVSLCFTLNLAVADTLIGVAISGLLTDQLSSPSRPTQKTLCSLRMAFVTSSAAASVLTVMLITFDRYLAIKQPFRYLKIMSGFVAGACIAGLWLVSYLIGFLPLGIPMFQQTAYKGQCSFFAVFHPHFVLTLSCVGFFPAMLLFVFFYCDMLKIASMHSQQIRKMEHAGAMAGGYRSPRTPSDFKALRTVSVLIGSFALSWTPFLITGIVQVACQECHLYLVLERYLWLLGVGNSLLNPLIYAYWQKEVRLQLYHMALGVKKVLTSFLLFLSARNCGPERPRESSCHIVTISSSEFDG
# Assay: AlphaScreen cAMP assay in Min-6/hGPR119 cells (activation of GPR119, intracellular cAMP)
# Format: cell-based
# Settings: MIN6 cells stably transfected with human GPR119; cAMP by AlphaScreen after 45 minutes incubation at room temperature
# Procedure, shortened: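 MIN6 cells stably expressing human GPR119, seeded 24 h before treatment; compounds applied 45 min at ~20 °C in Hepes-buffered saline pH 7.4 with 0.5 mM IBMX, 0.1% BSA, 1% DMSO final. Intracellular cAMP measured by AlphaScreen.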
row,SMILES,pEC50
1,"CC1(OC(=O)N2CCC(C3Cc4cc(C5=CCN(S(C)(=O)=O)CC5)ncc4O3)CC2)CC1 (centres unmarked) [Example 97, 4-[5-(1-Methanesulfonyl-1,2,3,6-tetrahydro-pyridin-4-yl)-2,3-dihydro-furo[2,3-c]pyridin-2-yl]-piperidine-1-carboxylic acid 1-methyl-cyclopropyl ester]",8.15
2,CCS(=O)(=O)N1CCN(c2cc3c(cn2)OC(C2CCN(C(=O)OC(C)(C)C)CC2)C3)CC1 (centres unmarked) [Example 98],7.82
3,"CC(C)S(=O)(=O)N1CCN(c2cc3c(cn2)OC(C2CCN(C(=O)OC(C)(C)C)CC2)C3)CC1 (centres unmarked) [Example 99, 4-{5-[4-(Propane-2-sulfonyl)-piperazin-1-yl]-2,3-dihydro-furo[2,3-c]pyridin-2-yl}-piperidine-1-carboxylic acid tert-butyl ester]",7.32
4,"CCCS(=O)(=O)N1CCN(c2cc3c(cn2)OC(C2CCN(C(=O)OC(C)(C)C)CC2)C3)CC1 (centres unmarked) [Example 100, 4-{5-[4-(Propane-1-sulfonyl)-piperazin-1-yl]-2,3-dihydro-furo[2,3-c]pyridin-2-yl}-piperidine-1-carboxylic acid ten-butyl ester]",8.05
5,"CC(C)(C)OC(=O)N1CCC(C2Cc3cc(N4CCN(S(=O)(=O)C5CC5)CC4)ncc3O2)CC1 (centres unmarked) [Example 101, 4-[5-(4-Cyclopropanesulfonyl-piperazin-1-yl)-2,3-dihydro-furo[2,3-c]pyridin-2-yl]-piperidine-1-carboxylic acid tert-butyl ester]",7.64
6,"CN(C1CCN(c2cc3c(cn2)OC(C2CCN(C(=O)OC(C)(C)C)CC2)C3)CC1)S(C)(=O)=O (centres unmarked) [Example 102, 4-{5-[4-(Methanesulfonyl-methyl-amino)-piperidin-1-yl]-2,3-dihydro-furo[2,3-c]pyridin-2-yl}-piperidine-1-carboxylic acid tert-butyl ester]",6.20
7,CC(O)CCNC(=O)Cc1ccc(-c2ccc3c(c2)CC(C2CCN(C(=O)OC(C)C)CC2)O3)cc1 (centres unmarked) [Example 126],6.77
8,COC1CCN(C(=O)Cc2ccc(-c3ccc4c(c3)CC(C3CCN(C(=O)OC(C)C)CC3)O4)cc2)CC1 (centres unmarked) [Example 128],7.24
9,CC(C)OC(=O)N1CCC(C2Cc3cc(-c4ccc(C(=O)N5CCC(O)C5)cc4)ccc3O2)CC1 (centres unmarked) [Example 131],7.02
10,CC(C)OC(=O)N1CCC(C2Cc3cc(-c4ccc(CC(=O)N5CCC(O)C5)cc4)ccc3O2)CC1 (centres unmarked) [Example 132],6.81
11,CC(C)OC(=O)N1CCC(C2Cc3cc(-c4ccc(CC(=O)N5CC(F)(F)C5)cc4)ccc3O2)CC1 (centres unmarked) [Example 136],7.96
12,CC(C)OC(=O)N1CCC(C2Cc3cc(-c4ccc(C(=O)NCC5COCCO5)cc4)ccc3O2)CC1 (centres unmarked) [Example 137],7.29
13,CC(C)OC(=O)N1CCC(C2Cc3cc(-c4ccc(CC(=O)NCC5COCCO5)cc4)ccc3O2)CC1 (centres unmarked) [Example 138],6.56
14,CC(C)OC(=O)N1CCC(C2Cc3cc(-c4ccc(C(=O)N(C)C5CCCOC5)cc4)ccc3O2)CC1 (centres unmarked) [Example 139],7.28
15,CC(C)OC(=O)N1CCC(C2Cc3cc(-c4ccc(CC(=O)N(C)C5CCCOC5)cc4)ccc3O2)CC1 (centres unmarked) [Example 140],7.20
16,CC(C)OC(=O)N1CCC(C2Cc3cc(-c4ccc(CC(=O)NCc5cocn5)cc4)ccc3O2)CC1 (centres unmarked) [Example 142],6.68
17,CC(C)OC(=O)N1CCC(C2Cc3cc(-c4ccc(C(=O)N5CCC(C)(O)C5)cc4)ccc3O2)CC1 (centres unmarked) [Example 143],7.03
18,CC(C)OC(=O)N1CCC(C2Cc3cc(-c4ccc(CC(=O)N5CCC(C)(O)C5)cc4)ccc3O2)CC1 (centres unmarked) [Example 144],6.96
19,CC(C)OC(=O)N1CCC(C2Cc3cc(-c4ccc(CC(=O)NCCC(C)(C)O)cc4)ccc3O2)CC1 (centres unmarked) [Example 148],7.01
20,CC(C)OC(=O)N1CCC(C2Cc3cc(-c4ccc(C(=O)N5CCOCC5)cc4)ccc3O2)CC1 (centres unmarked) [Example 149],8.05
21,CC(C)OC(=O)N1CCC(C2Cc3cc(-c4ccc(CC(=O)N5CCOCC5)cc4)ccc3O2)CC1 (centres unmarked) [Example 150],7.21
22,CC(C)OC(=O)N1CCC(C2Cc3cc(-c4ccc(CC(=O)NCC(C)(C)CO)cc4)ccc3O2)CC1 (centres unmarked) [Example 152],6.82
23,CC(C)OC(=O)N1CCC(C2Cc3cc(-c4ccc(C(=O)NCC5CCCO5)cc4)ccc3O2)CC1 (centres unmarked) [Example 153],7.77
24,CC(C)OC(=O)N1CCC(C2Cc3cc(-c4ccc(CC(=O)NCC5CCCO5)cc4)ccc3O2)CC1 (centres unmarked) [Example 154],7.01

# Other lines, results leading:
row,pEC50,SMILES
1,6.73,"CC(C)OC(=O)N1CCC(C2Cc3cc(-c4cccc(C#N)c4)ccc3O2)CC1 (centres unmarked) [Example 103, 4-[5-(3-Cyano-phenyl)-2,3-dihydro-benzofuran-2-yl]-piperidine-1-carboxylic acid isopropyl ester]"
2,6.70,CC(=O)c1ccc(-c2ccc3c(c2)CC(C2CCN(C(=O)OC(C)C)CC2)O3)cc1 (centres unmarked) [Example 104]
3,7.00,CC(C)OC(=O)N1CCC(C2Cc3cc(-c4ccc(CC#N)cc4)ccc3O2)CC1 (centres unmarked) [Example 105]
4,5.77,Cc1noc(C)c1-c1ccc2c(c1)CC(C1CCN(C(=O)OC(C)C)CC1)O2 (centres unmarked) [Example 106]
5,5.95,CC(C)OC(=O)N1CCC(C2Cc3cc(-c4cccc(S(C)(=O)=O)c4)ccc3O2)CC1 (centres unmarked) [Example 107]
6,5.70,COc1ncc(-c2ccc3c(c2)CC(C2CCN(C(=O)OC(C)C)CC2)O3)cn1 (centres unmarked) [Example 108]
7,7.55,CCNC(=O)c1ccc(-c2ccc3c(c2)CC(C2CCN(C(=O)OC(C)C)CC2)O3)cc1 (centres unmarked) [Example 109]
8,7.28,CC(C)OC(=O)N1CCC(C2Cc3cc(-c4ccc(S(N)(=O)=O)cc4)ccc3O2)CC1 (centres unmarked) [Example 110]
9,6.82,CC(C)OC(=O)N1CCC(C2Cc3cc(-c4ccc(C#N)c(F)c4)ccc3O2)CC1 (centres unmarked) [Example 111]
10,6.49,CC(C)OC(=O)N1CCC(C2Cc3cc(-c4cnc(C#N)nc4)ccc3O2)CC1 (centres unmarked) [Example 112]
11,6.78,CC(C)OC(=O)N1CCC(C2Cc3cc(-c4ccncc4F)ccc3O2)CC1 (centres unmarked) [Example 113]
12,6.28,COC(=O)c1ccc(-c2ccc3c(c2)CC(C2CCN(C(=O)OC(C)C)CC2)O3)cn1 (centres unmarked) [Example 114]
13,7.38,CC(C)OC(=O)N1CCC(C2Cc3cc(-c4ccc(S(C)(=O)=O)cc4F)ccc3O2)CC1 (centres unmarked) [Example 115]
14,6.11,COC(=O)c1cc(-c2ccc3c(c2)CC(C2CCN(C(=O)OC(C)C)CC2)O3)cs1 (centres unmarked) [Example 116]
15,6.43,CC(C)OC(=O)N1CCC(C2Cc3cc(-c4ccc(C(F)(F)F)nc4)ccc3O2)CC1 (centres unmarked) [Example 117]
16,7.82,CC(C)OC(=O)N1CCC(C2Cc3cc(-c4ccc(S(C)(=O)=O)c(F)c4)ccc3O2)CC1 (centres unmarked) [Example 118]
17,6.07,COc1cc(-c2ccc3c(c2)CC(C2CCN(C(=O)OC(C)C)CC2)O3)ccc1C#N (centres unmarked) [Example 119]
18,6.41,CC(C)OC(=O)N1CCC(C2Cc3cc(-c4ccc5c(cnn5C)c4)ccc3O2)CC1 (centres unmarked) [Example 120]

row,pEC50,SMILES
1,7.34,CC(C)OC(=O)N1CCC(C2Cc3cc(-c4ccc(NS(C)(=O)=O)cc4)ccc3O2)CC1 (centres unmarked) [Example 121]
2,7.52,"COCCN(C)C(=O)c1ccc(-c2ccc3c(c2)CC(C2CCN(C(=O)OC(C)C)CC2)O3)cc1 (centres unmarked) [Example 123, 4-(5-{4-[(2-Methoxy-ethyl)-methyl-carbamoyl]-phenyl}-2,3-dihydro-benzofuran-2-yl)-piperidine-1-carboxylic acid isopropyl ester]"
3,7.15,COCCN(C)C(=O)Cc1ccc(-c2ccc3c(c2)CC(C2CCN(C(=O)OC(C)C)CC2)O3)cc1 (centres unmarked) [Example 124]
4,6.96,CC(O)CCNC(=O)c1ccc(-c2ccc3c(c2)CC(C2CCN(C(=O)OC(C)C)CC2)O3)cc1 (centres unmarked) [Example 125]
5,7.60,COC1CCN(C(=O)c2ccc(-c3ccc4c(c3)CC(C3CCN(C(=O)OC(C)C)CC3)O4)cc2)CC1 (centres unmarked) [Example 127]
6,7.14,CC(O)CNC(=O)c1ccc(-c2ccc3c(c2)CC(C2CCN(C(=O)OC(C)C)CC2)O3)cc1 (centres unmarked) [Example 129]
7,6.80,CC(O)CNC(=O)Cc1ccc(-c2ccc3c(c2)CC(C2CCN(C(=O)OC(C)C)CC2)O3)cc1 (centres unmarked) [Example 130]
8,6.98,CC(C)OC(=O)N1CCC(C2Cc3cc(-c4ccc(C(=O)NCC#N)cc4)ccc3O2)CC1 (centres unmarked) [Example 133]
9,7.00,CC(C)OC(=O)N1CCC(C2Cc3cc(-c4ccc(CC(=O)NCC#N)cc4)ccc3O2)CC1 (centres unmarked) [Example 134]
10,7.42,CC(C)OC(=O)N1CCC(C2Cc3cc(-c4ccc(C(=O)N5CC(F)(F)C5)cc4)ccc3O2)CC1 (centres unmarked) [Example 135]
11,7.40,CC(C)OC(=O)N1CCC(C2Cc3cc(-c4ccc(C(=O)NCc5cocn5)cc4)ccc3O2)CC1 (centres unmarked) [Example 141]
12,7.42,COC1CN(C(=O)c2ccc(-c3ccc4c(c3)CC(C3CCN(C(=O)OC(C)C)CC3)O4)cc2)C1 (centres unmarked) [Example 145]
13,7.19,COC1CN(C(=O)Cc2ccc(-c3ccc4c(c3)CC(C3CCN(C(=O)OC(C)C)CC3)O4)cc2)C1 (centres unmarked) [Example 146]
14,6.95,CC(C)OC(=O)N1CCC(C2Cc3cc(-c4ccc(C(=O)NCCC(C)(C)O)cc4)ccc3O2)CC1 (centres unmarked) [Example 147]
15,7.33,CC(C)OC(=O)N1CCC(C2Cc3cc(-c4ccc(C(=O)NCC(C)(C)CO)cc4)ccc3O2)CC1 (centres unmarked) [Example 151]
16,7.09,CC(C)OC(=O)N1CCC(C2Cc3cc(-c4ccc(C(=O)N(C)CCO)cc4)ccc3O2)CC1 (centres unmarked) [Example 155]
17,6.88,CC(C)OC(=O)N1CCC(C2Cc3cc(-c4ccc(CC(=O)N(C)CCO)cc4)ccc3O2)CC1 (centres unmarked) [Example 156]
